The results in this text go back to patent US20260027096A1, “PHD INHIBITORS” (Oxford University Innovation Limited, priority 2023, published 2026).

One data set has as its system human THP-1 cells. The data set can be described thus: Proliferation and apoptosis of THP-1 cells. Type of data set: cell-based. To be noted: THP-1, 50 μM. The source says:
(§1) Viable cells were counted by trypan blue exclusion at the indicated time points. To analyse cells undergoing apoptosis, cells were suspended in binding buffer containing PE-conjugated Annexin-V or FITC-conjugated Annexin-V, and either PI or DAPI.
To determine consequences of Daprodustat (2) and IOX5 (68, example 46) treatment on AML cells driven by the MLL-AF9→MEIS1/HOXA9 axis, mouse iMLL-AF9-and Meis1Hoxa9-transformed AML cells were employed, as well as human THP-1 cells, which harbour the MIL-AF9 translocation. […] Thus, providing compelling evidence that PHD inhibition compromises AML cells driven by the MLL-AF9→MEIS1/HOXA9 axis.

Data set [1] concerns THP-1 cells in NBSGW recipient mice. The data set can be described thus: THP-1 xenotransplantation in NBSGW mice. In kind it is in vivo. The following applies: 30 mg/kg i.p. twice daily for 21 days. From the text:
(A) 100,000 THP-1 cells were transplanted into NBSGW recipient mice. […] (B-C) Percentage of human CD45+CD33+ and human CD45+CD14+ cells in the BM and spleen, respectively (n=4-5). (D) 100,000 OCI-AML3 cells were transplanted into NBSGW recipient mice. […] (E) Percentage of human CD45+CD33+CD14+ cells in the liver, BM and PB, respectively (n=3-7). (F) 2,000 LSK cells from iMLL-AF9;Control mice were sorted and transplanted into irradiated recipient mice. […] (H) LDA in secondary recipients transplanted with indicated doses of CD45.2+BM cells from primary recipients (n=9-10 per dose). (I) Plot showing Poisson statistical analysis. Circles represent the percentages of negative mice for each cell dose, triangles represent any data values with zero negative responses. Solid lines indicate the best-fit linear model, and dotted lines represent 95% CIs. LSC frequencies were calculated using the ELDA software 121. (J) Steady-state analyses of 8-to 10-week-old C57B16 mice treated with IOX5 or vehicle control 2× daily via i.p. injection for 14 days (n=5-7). (K) PB counts (n=6). (L) Total BM cellularity (n=5-9). (M) Total numbers of HSC, MPP, HPC-1 and HPC-2 populations (n=5-7). Data represent mean±SEM; * p<0.05; ** p<0.01; *** p<0.001; **** p<0.0001.
100,000 THP-1 cells, 100,000 OCI-AM3 cells or 100,000 MV411 cells (for combination experiments) were tail vein injected into non-irradiated 10-to 12-week-old mixed gender NBSGW mice and began drug treatment 14 days after transplantation. […] Mice were culled 5 weeks after transplantation.
Next, it was examined whether IOX (68, example 46)5 has a therapeutic impact on MLL-AF9-independent AML. […] Therefore, IOX5 (68, example 46) compromises both MLL-rearranged and non-MLL AML in vivo.

In data set [2] the test system is primary human AML cells (patient samples). The data set can be described thus: Apoptosis of primary human AML patient samples. Type of data set: cell-based. The following applies: 50 μM. The protocol: Frozen AML samples were retrieved from Barts Cancer Institute Biobank and quickly thawed at 37° C. Upon thawing, T cells were depleted from all samples using EasySep™ Human TCR Alpha/Beta Depletion Kit (Stem Cell Technologies, #17847). Enriched samples were plated in concentration 0.4-1.0×10^6/mL in Myelocult H5100 medium (Stem Cell Technologies, #05150) supplemented with 20 ng/ml IL-3, G-CSF and TPO (Biolegend) in co-culture with irradiated MS-5 cells and treated with 50 μM Dap, 50 μM IOX5 (68, example 46), 1 μM Venetoclax or vehicle control for 7 days. After 3 days of treatment, half the sample was used for plating CFU assays and initial analyses, the other half was given fresh medium containing the corresponding agent. After 7 days, viable cell numbers were counted, viability was assessed using Annexin V FITC/PI stain, cell cycle was measured using PI, and the expression of CD45, CD34, CD11b and CD14 was determined. CFC assays were counted 11 days after plating. Samples were deemed sensitive to treatment if either a decrease in viability or a decrease in proliferation, as validated by cell cycle phase distribution, was detected.
To investigate the clinical utility of PHD inhibition in human AML, it was next determined the impact of Dap or IOX5 (68, example 46) on AML patient samples (FIG. 29), focusing on poor-risk AML, which is characterised by a particularly low overall patient survival rate^73.
Finally, the clinical applicability of PHD inhibition in AML was validated by treating independent patient-derived primary AML cells with Daprodustat (2) and IOX5 (68, example 46). […] Taken together, Examples 163 to 167 provide genetic and pharmacological evidence that PHD inhibition is a plausible therapeutic strategy in AML.

Data set [3] has as its system BNIP3 mRNA in human AML cells. The data set can be described thus: qPCR of BNIP3 (BAX, BAK) in human AML cells. In kind it is cell-based. The following applies: for BNIP3 mRNA expression: MOLM13, OCI-AML3, MV411 and THP-1 cells; for BNIP3, BAX and BAK transcripts (qPCR): MOLM-13 cells, 50 μM. On the procedure: RNA was isolated using Direct-zol RNA Miniprep kit (Zymo Research, #R2051) and reverse transcribed using High-Capacity cDNA Reverse Transcription Kit (Applied Biosystems). For real-time quantitative PCR (qPCR), 5 ng of cDNA, 5 μL of PowerUp SYBR Green MasterMix (Applied Biosystems) and 2 pmol of primers were used per well of 384-well plate. Reactions were performed in triplicate using C1000 Thermocycler 384well (BioRad). Gene expression was quantified using comparative AA-Ct method and ACTB was used as the housekeeping gene. Data is expressed as log 2 fold change in comparison to control sample and represents results of three independent experiments measured in duplicate.
Given that the primary function of PHD2 is to promote HIF-α degradation, HIF-1α levels were measured following the treatment of AML cells with PHD inhibitors. […] To investigate whether HIF-α mediates the anti-leukaemic effects of PHD inhibition, Meis1/Hoxa9-transformed AML cells lacking both Hif1α and Hif2α and control cells were employed (Vukovic et al., 2015). […] Next, to investigate a molecular mechanism behind the anti-leukaemic effect of PHD inhibition, HIF-dependent transcripts that were dysregulated were interrogated via (68, example 46)-treatment in murine cells.

Data set [4] has as its system murine AML cells harbouring FLT3-ITD mutations (with and without NPM1 mutations), PML-RARα and AML1-ETO. The data set can be described thus: Proliferation and apoptosis of murine AML cells with other drivers. In kind it is cell-based, mouse.
From the text: as §1
To validate the anti-leukaemic effect of PHD inhibition on AML cells transformed by drivers independent from the MLL/Meis1/Hoxa9 axis, murine AML cells harbouring FLT3-ITD mutations were employed (with and without NPM1 mutations), PML-RARα and AML1-ETO.

Entries after “also recorded” stand apart in the source; their conditions may differ.

For the molecule `O=C(O)CNC(=O)c1c(O)n(C2CCCCC2)c(=O)n(C2CCCCC2)c1=O` [Daprodustat, daprodustat, reference compound], in the data set on human THP-1 cells, the apoptosis entry is on record as “induced their apoptosis” and the proliferation result is given as “compromised their proliferative capacity”. In data set [1], the leukaemic burden result is “significantly reduced leukaemic burden” and the tolerability of treatment entry is recorded as “well tolerated”. Further, the “apoptosis of primary human AML cells” value in data set [2] is listed as “significantly increased primary human AML cell apoptosis”. Further, the “apoptosis of primary human AML cells” value in data set [2] (listed as Dap) is recorded as “clearly increased apoptosis”. Also, in data set [3], the “BNIP3 mRNA expression” value was “strongly induced BNIP3 expression”; the “BNIP3, BAX and BAK transcripts (qPCR)” value is “upregulation of BNIP3 was found, as well as its downstream effectors BAX and BAK”. In data set [4], the “apoptosis (Annexin-V+DAPI+)” value is “induced apoptosis” and the proliferation result is listed as “reduced the proliferative rate”.

For the molecule `O=C(NCC1CCC(C(F)(F)F)CC1)c1c[nH]c(-n2cccn2)cc1=O` (stereo not drawn) [IOX5], in the data set on human THP-1 cells, the apoptosis result is given as “induced their apoptosis” and the proliferation entry was “compromised their proliferative capacity”. Besides, the leukaemic burden result in data set [1] is on record as “significantly reduced leukaemic burden”. For the same molecule, the “apoptosis of primary human AML cells” value in data set [2] is recorded as “clearly increased apoptosis; also recorded: significantly increased primary human AML cell apoptosis”. Moreover, in data set [3], the “BNIP3 mRNA expression” value is “strongly induced BNIP3 expression”; the “BNIP3, BAX and BAK transcripts (qPCR)” value was “upregulation of BNIP3 was found, as well as its downstream effectors BAX and BAK”. In data set [4], the “apoptosis (Annexin-V+DAPI+)” value is “induced apoptosis” and the proliferation result is reported as “reduced the proliferative rate”.
